# Laboratory results published in US8748461B2, “Metalloenzyme inhibitor compounds” (Viamet Pharmaceuticals, Inc., priority 2011, dated 2014).
# Test system: Septoria tritici (ATCC 26517)
# Assay: Minimum Inhibitory Concentration (MIC) vs. Septoria tritici
# Type: cell-based
# Conditions: Zymoseptoria tritici, ATCC26517, 168 h; 50% reduction in growth of S. tritici; 22° C., seven days; read-out: Septoria Rating (MIC)
# Description: C. Minimum Inhibitory Concentration (MIC) vs. Septoria tritici Compounds were assessed for their ability to inhibit the growth of a common strain of the fungal plant pathogen Septoria tritici (ATCC 26517) using a procedure based on a Clinical and Laboratory Standards Institute (CLSI) microdilution assay protocol for filamentous fungi. Stock solutions of the test compounds and standards were prepared in DMSO at 6400 μg/mL. Each stock solution was used to prepare a 2-fold dilution series ranging from 16 to 0.016 μg/mL (total of 11 compound concentrations) in RPMI-1640 (Roswell Park Memorial Institute) medium containing 3-(N-morpholino)propanesulfonic acid (MOPS) buffer and 2% DMSO. A 100 μL aliquot of the dilutions was added to columns 1 (16 μg/mL compound) through 11 (0.016 μg/mL compound) of a 96-well microtiter plate. This format was replicated in a second row of the microtiter plate. Thus, each microtiter plate could include 11 concentrations of four test or control compounds replicated twice. A 100 μL aliquot of RPMI-1640/MOPS/2% DMSO medium was added to column 12 (no compound control) of the microtiter plate. A fresh culture of S. tritici was used to prepare a solution of approximately 5×10^4 colony-forming units per milliliter (cfu/mL) in RPMI/MOPS medium without DMSO. A 100 μL aliquot of this solution was added to all 96 wells in the microtiter plate. […] The assay plates were incubated at 22° C. for seven days in the dark without shaking. […] In each case of Table 3, the Septoria rating scale is as follows: […]
row,MIC,SMILES
1,> 4 µg/mL,"OC(Cn1ncnn1)(c1ccc(Cl)cc1F)C(F)(F)c1ccc(OCC(F)(F)F)cn1 (stereo not drawn) [Compound 72, 2-(4-Chloro-2-fluorophenyl)-1,1-difluoro-3-(2H-tetrazol-2-yl)-1-(5-(2,2,2-trifluoroethoxy)pyridin-2-yl)propan-2-ol]"
2,> 4 µg/mL,"N#Cc1ccc(Oc2ccc(C(F)(F)C(O)(Cn3ncnn3)c3ccc(Cl)cc3F)nc2)cc1F (stereo not drawn) [Compound 82, 4-((6-(2-(4-Chloro-2-fluorophenyl)-1,1-difluoro-2-hydroxy-3-(2H-tetrazol-2-yl)propyl)pyridin-3-yl)oxy)-2-fluorobenzonitrile]"
3,> 4 µg/mL,"N#Cc1ccc(COc2ccc(C(F)(F)C(O)(Cn3ncnn3)c3ccc(F)cc3F)nc2)s1 (stereo not drawn) [Compound 74, 5-(((6-(2-(2,4-Difluorophenyl)-1,1-difluoro-2-hydroxy-3-(2H-tetrazol-2-yl)propyl)pyridin-3-yl)oxy)methyl)thiophene-2-carbonitrile]"
4,≤ 0.5 µg/mL,"CC#CCOc1ccc(C(F)(F)C(O)(Cn2cnnn2)c2ccc(Cl)cc2F)nc1 (stereo not drawn) [Compound 63, 1-(5-(But-2-yn-1-yloxy)pyridin-2-yl)-2-(4-chloro-2-fluorophenyl)-1,1-difluoro-3-(1H-tetrazol-1-yl)propan-2-ol]"
5,1.5 to 4 µg/mL,"N#Cc1cccc(COc2ccc(C(F)(F)C(O)(Cn3ncnn3)c3ccc(F)cc3F)nc2)c1F (stereo not drawn) [Compound 68, 3-(((6-(2-(2,4-Difluorophenyl)-1,1-difluoro-2-hydroxy-3-(2H-tetrazol-2-yl)propyl)pyridin-3-yl)oxy)methyl)-2-fluorobenzonitrile]"
6,1.5 to 4 µg/mL,"N#Cc1ccc(Oc2ccc(C(F)(F)C(O)(Cn3ncnn3)c3ccc(Cl)cc3F)nc2)cc1 (stereo not drawn) [Compound 80, 4-((6-(2-(4-Chloro-2-fluorophenyl)-1,1-difluoro-2-hydroxy-3-(2H-tetrazol-2-yl)propyl)pyridin-3-yl)oxy)benzonitrile]"
7,> 4 µg/mL,"N#Cc1cc(COc2ccc(C(F)(F)C(O)(Cn3ncnn3)c3ccc(F)cc3F)nc2)ccc1F (stereo not drawn) [Compound 66, 5-(((6-(2-(2,4-Difluorophenyl)-1,1-difluoro-2-hydroxy-3-(2H-tetrazol-2-yl)propyl)pyridin-3-yl)oxy)methyl)-2-fluorobenzonitrile]"
8,≤ 0.5 µg/mL,"OC(Cn1cnnn1)(c1ccc(F)cc1F)C(F)(F)c1ccc(Oc2nc3cc(Cl)ccc3s2)cn1 (stereo not drawn) [Compound 109, 1-(5-((5-chlorobenzo[d]thiazol-2-yl)oxy)pyridin-2-yl)-2-(2,4-difluorophenyl)-1,1-difluoro-3-(1H-tetrazol-1-yl)propan-2-ol]"
9,≤ 0.5 µg/mL,"OC(Cn1cnnn1)(c1ccc(F)cc1F)C(F)(F)c1ccc(Oc2nc3ccc(Cl)cc3s2)cn1 (stereo not drawn) [Compound 110, 1-(5-((6-chlorobenzo[d]thiazol-2-yl)oxy)pyridin-2-yl)-2-(2,4-difluorophenyl)-1,1-difluoro-3-(1H-tetrazol-1-yl)propan-2-ol]"
10,≤ 0.5 µg/mL,"OC(Cn1cnnn1)(c1ccc(F)cc1F)C(F)(F)c1ccc(Oc2ccc3ccccc3n2)cn1 (stereo not drawn) [Compound 108, 2-(2,4-difluorophenyl)-1,1-difluoro-1-(5-(quinolin-2-yloxy)pyridin-2-yl)-3-(1H-tetrazol-1-yl)propan-2-ol]"
11,≤ 0.5 µg/mL,"N#Cc1ccc(Oc2ccc(C(F)(F)C(O)(Cn3cnnn3)c3ccc(F)cc3F)nc2)cn1 (stereo not drawn) [Compound 112, 5-((6-(2-(2,4-difluorophenyl)-1,1-difluoro-2-hydroxy-3-(1H-tetrazol-1-yl)propyl)pyridin-3-yl)oxy)picolinonitrile]"

# The remaining lines, values behind:
row,SMILES,MIC
1,"CC(Oc1ccc(C(F)(F)C(O)(Cn2ncnn2)c2ccc(F)cc2F)nc1)C(F)(F)F (stereo not drawn) [Compound 48, 2-(2,4-Difluorophenyl)-1,1-difluoro-3-(2H-tetrazol-2-yl)-1-(5-((1,1,1-trifluoropropan-2-yl)oxy)pyridin-2-yl)propan-2-ol]",0.5 to 1.5 µg/mL
2,"CC(C)COc1ccc(C(F)(F)C(O)(Cn2ncnn2)c2ccc(Cl)cc2F)nc1 (stereo not drawn) [Compound 70, 2-(4-Chloro-2-fluorophenyl)-1,1-difluoro-1-(5-isobutoxypyridin-2-yl)-3-(2H-tetrazol-2-yl)propan-2-ol]",> 4 µg/mL
3,"N#Cc1ccc(COc2ccc(C(F)(F)C(O)(Cn3ncnn3)c3ccc(Cl)cc3F)nc2)nc1 (stereo not drawn) [Compound 62, 6-(((6-(2-(4-Chloro-2-fluorophenyl)-1,1-difluoro-2-hydroxy-3-(2H-tetrazol-2-yl)propyl)pyridin-3-yl)oxy)methyl)nicotinonitrile]",1.5 to 4 µg/mL
4,"OC(Cn1cnnn1)(c1ccc(F)cc1F)C(F)(F)c1cc(OCc2ccc(F)cc2F)ccn1 (stereo not drawn) [Compound 13, 1-(4-((2,4-Difluorobenzyl)oxy)pyridin-2-yl)-2-(2,4-difluorophenyl)-1,1-difluoro-3-(1H-tetrazol-1-yl)propan-2-ol]",0.5 to 1.5 µg/mL
5,"OC(Cn1ncnn1)(c1ccc(F)cc1F)C(F)(F)c1ccc(OCc2ccccc2)cn1 (stereo not drawn) [Compound 31, 1-(5-(Benzyloxy)pyridin-2-yl)-2-(2,4-difluorophenyl)-1,1-difluoro-3-(2H-tetrazol-2-yl)propan-2-ol]",> 4 µg/mL
6,"OC(Cn1ncnn1)(c1ccc(F)cc1F)C(F)(F)c1ccc(OCc2cc(F)cc(F)c2)cn1 (stereo not drawn) [Compound 36, 1-(5-((3,5-Difluorobenzyl)oxy)pyridin-2-yl)-2-(2,4-difluorophenyl)-1,1-difluoro-3-(2H-tetrazol-2-yl)propan-2-ol]",> 4 µg/mL
7,"OC(Cn1cnnn1)(c1ccc(F)cc1F)C(F)(F)c1ccc(OCc2ccc(Cl)cc2)cn1 (stereo not drawn) [Compound 4, 1-(5-(4-Chlorobenzyloxy)pyridin-2-yl)-2-(2,4-difluorophenyl)-1,1-difluoro-3-(1H-tetrazol-1-yl)propan-2-ol]",≤ 0.5 µg/mL
8,"OC(Cn1cnnn1)(c1ccc(F)cc1F)C(F)(F)c1ccc(SCC(F)(F)F)cn1 (stereo not drawn) [Compound 18, 2-(2,4-Difluorophenyl)-1,1-difluoro-3-(1H-tetrazol-1-yl)-1-(5-((2,2,2-trifluoroethyl)thio)pyridin-2-yl)propan-2-ol]",1.5 to 4 µg/mL
9,"N#Cc1ccc(CSc2ccc(C(F)(F)C(O)(Cn3ncnn3)c3ccc(F)cc3F)nc2)c(F)c1 (stereo not drawn) [Compound 16, 4-(((6-(2-(2,4-Difluorophenyl)-1,1-difluoro-2-hydroxy-3-(2H-tetrazol-2-yl)propyl)pyridin-3-yl)thio)methyl)-3-fluorobenzonitrile]",1.5 to 4 µg/mL
10,"CC#CCOc1ccc(C(F)(F)C(O)(Cn2ncnn2)c2ccc(F)cc2F)nc1 (stereo not drawn) [Compound 33, 1-(5-(But-2-yn-1-yloxy)pyridin-2-yl)-2-(2,4-difluorophenyl)-1,1-difluoro-3-(2H-tetrazol-2-yl)propan-2-ol]",> 4 µg/mL
11,"OC(Cn1ncnn1)(c1ccc(F)cc1F)C(F)(F)c1ccc(OCc2ccccn2)cn1 (stereo not drawn) [Compound 38, 2-(2,4-Difluorophenyl)-1,1-difluoro-1-(5-(pyridin-2-ylmethoxy)pyridin-2-yl)-3-(2H-tetrazol-2-yl)propan-2-ol]",> 4 µg/mL
12,"OC(Cn1ncnn1)(c1ccc(F)cc1F)C(F)(F)c1ccc(OCC2CC2)cn1 (stereo not drawn) [Compound 40, 1-(5-(Cyclopropylmethoxy)pyridin-2-yl)-2-(2,4-difluorophenyl)-1,1-difluoro-3-(2H-tetrazol-2-yl)propan-2-ol]",> 4 µg/mL
13,"N#CCOc1ccc(C(F)(F)C(O)(Cn2cnnn2)c2ccc(F)cc2F)nc1 (stereo not drawn) [Compound 29, 2-((6-(2-(2,4-Difluorophenyl)-1,1-difluoro-2-hydroxy-3-(1H-tetrazol-1-yl)propyl)pyridin-3-yl)oxy)acetonitrile]",1.5 to 4 µg/mL
14,"OC(Cn1cnnn1)(c1ccc(F)cc1F)C(F)(F)c1ccc(OCc2ncc(F)cc2F)cn1 (stereo not drawn) [Compound 60, 2-(2,4-Difluorophenyl)-1-(5-((3,5-difluoropyridin-2-yl)methoxy)pyridin-2-yl)-1,1-difluoro-3-(1H-tetrazol-1-yl)propan-2-ol]",1.5 to 4 µg/mL
15,"C=COc1ccc(C(F)(F)C(O)(Cn2cnnn2)c2ccc(F)cc2F)nc1 (stereo not drawn) [Compound 14, 2-(2,4-Difluorophenyl)-1,1-difluoro-3-(1H-tetrazol-1-yl)-1-(5-(vinyloxy)pyridin-2-yl)propan-2-ol]",1.5 to 4 µg/mL
16,"OC(Cn1cnnn1)(c1ccc(F)cc1F)C(F)(F)c1ccc(OCc2ccc(F)cc2)cn1 (stereo not drawn) [Compound 19, 2-(2,4-Difluorophenyl)-1,1-difluoro-1-(5-((4-fluorobenzyl)oxy)pyridin-2-yl)-3-(1H-tetrazol-1-yl)propan-2-ol]",0.5 to 1.5 µg/mL
17,"OC(Cn1cnnn1)(c1ccc(F)cc1F)C(F)(F)c1ccc(OCc2ccc(OCC(F)(F)F)cc2)cn1 (stereo not drawn) [Compound 20, 2-(2,4-Difluorophenyl)-1,1-difluoro-3-(1H-tetrazol-1-yl)-1-(5-((4-(2,2,2-trifluoroethoxy)benzyl)oxy)pyridin-2-yl)propan-2-ol]",≤ 0.5 µg/mL
18,"N#Cc1ccc(COc2ccc(C(F)(F)C(O)(Cn3ncnn3)c3ccc(F)cc3F)nc2)nc1 (stereo not drawn) [Compound 51, 6-(((6-(2-(2,4-Difluorophenyl)-1,1-difluoro-2-hydroxy-3-(2H-tetrazol-2-yl)propyl)pyridin-3-yl)oxy)methyl)nicotinonitrile]",> 4 µg/mL
19,"N#Cc1cccc(COc2ccc(C(F)(F)C(O)(Cn3ncnn3)c3ccc(F)cc3F)nc2)c1 (stereo not drawn) [Compound 53, 3-(((6-(2-(2,4-Difluorophenyl)-1,1-difluoro-2-hydroxy-3-(2H-tetrazol-2-yl)propyl)pyridin-3-yl)oxy)methyl)benzonitrile]",> 4 µg/mL
